From ChEMBL document CHEMBL6121007, “Design, synthesis and evaluation of pyrimidine derivatives as sedative-hypnotic agents” (Eur J Med Chem, 2025)
Active and inactive are the calls of the source. No cut-off for these calls is given here.

Legend:
[1] = Clearance in male Sprague-Dawley rat at 0.5 mg/kg, iv measured after 2 to 720 mins by LC-MS/MS analysis; format: ADME, organism-based; settings: in vivo, time 2-720 min
[2] = system: Mus musculus; experiment: Upregulation of pancreatic secretion related genes in hypothalamus of mouse at 2.5 mg/kg, ip measured after 30 mins by KEGG enrichment analysis relative to control; format: functional; settings: 0.5 h
[3] = Upregulation of human T-cell leukemia virus 1 infection related genes in hypothalamus of mouse at 2.5 mg/kg, ip measured after 30 mins by KEGG enrichment analysis relative to control; format: functional; settings: 0.5 h
[4] = system: Mus musculus; experiment: Upregulation of cell cycle related genes in hypothalamus of mouse at 2.5 mg/kg, ip measured after 30 mins by KEGG enrichment analysis relative to control; format: functional; settings: 0.5 h
[5] = Drug concentration in male mouse brain at 10 mg/kg, ip measured after 4 hrs by LC-MS/MS analysis; format: ADME, organism-based; settings: read-out: Ct
[6] = Clearance in male Sprague-Dawley rat at 2.5 mg/kg, ip measured after 5 to 1440 mins by LC-MS/MS analysis; format: ADME, organism-based; settings: in vivo, time 5-1440 min
[7] = system: Mus musculus; experiment: In vivo activation of cAMP/PKA/CREB signaling pathway in mouse assessed as increase in cAMP level in hypothalamus at 2.5 mg/kg, ip measured after 30 mins by ELISA analysis; format: functional, organism-based
[8] = Drug concentration in male mouse brain at 10 mg/kg, ip measured after 1 hrs by LC-MS/MS analysis; format: ADME, organism-based; settings: read-out: Ct
[9] = Tmax in male Sprague-Dawley rat at 2.5 mg/kg, ip measured after 5 to 1440 mins by LC-MS/MS analysis; format: ADME, organism-based; settings: in vivo, time 5-1440 min
[10] = system: Mus musculus; experiment: Upregulation of signaling pathways regulating pluripotent stem cells related genes in hypothalamus of mouse at 2.5 mg/kg, ip measured after 30 mins by KEGG enrichment analysis relative to control; format: functional; settings: 0.5 h
[11] = system: Mus musculus; experiment: Sedative-hypnotic activity in pentobarbital-induced mouse assessed as decrease in sleep latency at 0.2 to 5 mg/kg, ip; format: functional, organism-based; settings: dose 0.2-5 mg/kg
[12] = system: Mus musculus; experiment: Sedative-hypnotic activity in mouse assessed as latency time of first step out of center square at 50 mg/kg, ip administrated as single dose and measured after 30 mins by open field test; format: functional, organism-based
[13] = Upregulation of cGMP-PKG signaling pathway related genes in hypothalamus of mouse at 2.5 mg/kg, ip measured after 30 mins by KEGG enrichment analysis relative to control; format: functional; settings: 0.5 h
[14] = system: Mus musculus; experiment: Upregulation of glycine metabolism related genes in hypothalamus of mouse at 2.5 mg/kg, ip measured after 30 mins by KEGG enrichment analysis relative to control; format: functional; settings: 0.5 h
[15] = Bioavailability in male Sprague-Dawley rat at 2.5 mg/kg, ip measured after 5 to 1440 mins by LC-MS/MS analysis; format: ADME, organism-based; settings: in vivo, time 5-1440 min
[16] = AUC (0 to infinity) in male Sprague-Dawley rat at 2.5 mg/kg, ip measured after 5 to 1440 mins by LC-MS/MS analysis; format: ADME, organism-based; settings: in vivo, time 5-1440 min
[17] = Upregulation of cushing syndrome related genes in hypothalamus of mouse at 2.5 mg/kg, ip measured after 30 mins by KEGG enrichment analysis relative to control; format: functional; settings: 0.5 h
[18] = Ratio of drug concentration in male mouse brain to plasma at 10 mg/kg, ip measured after 4 hrs by LC-MS/MS analysis; format: ADME, organism-based; settings: brain and plasma, read-out: BPR
[19] = system: Mus musculus; experiment: Upregulation of parathyroid hormone synthesis related genes in hypothalamus of mouse at 2.5 mg/kg, ip measured after 30 mins by KEGG enrichment analysis relative to control; format: functional; settings: 0.5 h
[20] = system: Mus musculus; experiment: Sedative-hypnotic activity in pentobarbital-induced mouse assessed as asleep rate at 0.5 to 0.1 mg/kg, ip preadministered with compound for 20 mins followed by pentobarbital administration and measured within 15 mins (reference value: 12.5 %); format: functional; settings: dose 0.5-0.1 mg/kg, time <= 35 min, at 0.1 to 0.5 mg/kg
[21] = AUC (0 to infinity) in male Sprague-Dawley rat at 0.5 mg/kg, iv measured after 2 to 720 mins by LC-MS/MS analysis; format: ADME, organism-based; settings: in vivo, time 2-720 min
[22] = Ratio of drug concentration in male mouse brain to plasma at 10 mg/kg, ip measured after 2 hrs by LC-MS/MS analysis; format: ADME, organism-based; settings: brain and plasma, read-out: BPR
[23] = Half life in male Sprague-Dawley rat at 2.5 mg/kg, ip measured after 5 to 1440 mins by LC-MS/MS analysis; format: ADME, organism-based; settings: in vivo, time 5-1440 min
[24] = system: Mus musculus; experiment: Upregulation of linoleic acid metabolism related genes in hypothalamus of mouse at 2.5 mg/kg, ip measured after 30 mins by KEGG enrichment analysis relative to control; format: functional; settings: 0.5 h
[25] = Half life in male Sprague-Dawley rat at 0.5 mg/kg, iv measured after 2 to 720 mins by LC-MS/MS analysis; format: ADME, organism-based; settings: in vivo, time 2-720 min
[26] = system: Mus musculus; experiment: Sedative-hypnotic activity in pentobarbital-induced mouse assessed as increase in sleep duration at 2.5 mg/kg, ip administrated as single dose; format: functional, organism-based
[27] = system: Mus musculus; experiment: Upregulation of gap junction related genes in hypothalamus of mouse at 2.5 mg/kg, ip measured after 30 mins by KEGG enrichment analysis relative to control; format: functional; settings: 0.5 h
[28] = system: Mus musculus; experiment: Upregulation of oxytocin signaling pathway related genes in hypothalamus of mouse at 2.5 mg/kg, ip measured after 30 mins by KEGG enrichment analysis relative to control; format: functional; settings: 0.5 h
[29] = system: Mus musculus; experiment: Upregulation of threonine metabolism related genes in hypothalamus of mouse at 2.5 mg/kg, ip measured after 30 mins by KEGG enrichment analysis relative to control; format: functional; settings: 0.5 h
[30] = system: Mus musculus; experiment: Upregulation of ubiquitin mediated proteolysis related genes in hypothalamus of mouse at 2.5 mg/kg, ip measured after 30 mins by KEGG enrichment analysis relative to control; format: functional; settings: 0.5 h
[31] = system: Mus musculus; experiment: Upregulation of apoptosis related genes in hypothalamus of mouse at 2.5 mg/kg, ip measured after 30 mins by KEGG enrichment analysis relative to control; format: functional; settings: 0.5 h
[32] = Drug concentration in male mouse plasma at 10 mg/kg, ip measured after 1 hrs by LC-MS/MS analysis; format: ADME, organism-based
[33] = Drug concentration in male mouse plasma at 10 mg/kg, ip measured after 2 hrs by LC-MS/MS analysis; format: ADME, organism-based
[34] = system: Mus musculus; experiment: Upregulation of parathyroid hormone secretion related genes in hypothalamus of mouse at 2.5 mg/kg, ip measured after 30 mins by KEGG enrichment analysis relative to control; format: functional; settings: 0.5 h
[35] = system: Mus musculus; experiment: Upregulation of calcium signaling pathway related genes in hypothalamus of mouse at 2.5 mg/kg, ip measured after 30 mins by KEGG enrichment analysis relative to control; format: functional; settings: 0.5 h
[36] = Upregulation of human papillomavirus infection related genes in hypothalamus of mouse at 2.5 mg/kg, ip measured after 30 mins by KEGG enrichment analysis relative to control; format: functional; settings: 0.5 h
[37] = Ratio of drug concentration in male mouse brain to plasma at 10 mg/kg, ip measured after 1 hrs by LC-MS/MS analysis; format: ADME, organism-based; settings: brain and plasma, read-out: BPR
[38] = Upregulation of MAPK signaling pathway related genes in hypothalamus of mouse at 2.5 mg/kg, ip measured after 30 mins by KEGG enrichment analysis relative to control; format: functional; settings: 0.5 h

CCn1c2ccccc2c2cc(Nc3ccnc(Nc4ccc(C)c(OC)c4)n3)ccc21
clearance [1]: 9.53 mL/min/kg
Activity [2]: 4.05%
Activity [3]: 4.62%
Activity [4]: 2.89%
concentration at 4 h [5]: 20.2 ng/mL
CL/F [6]: 12.7 mL/min/kg
Activity [7]: Active
concentration at 1 h [8]: 15 ng/mL
Tmax [9]: 4 h
Activity [10]: 2.89%
Activity [11]: Active
Activity [12]: Active; Significant Effect Observed
Activity [13]: 2.89%
Activity [14]: 1.73%
bioavailability [15]: 74.5%
AUC(0-inf) [16]: 3300 ng·h/mL
Activity [17]: 4.05%
Kp at 4 h [18]: 0.31
Activity [19]: 4.05%
Activity [20]: 75%
AUC(0-inf) [21]: 885 ng·h/mL
Kp at 2 h [22]: 0.38
half-life [23]: 4.56 h
Activity [24]: 1.73%
half-life [25]: 3.54 h
Activity [26]: Active
Activity [27]: 2.89%
Activity [28]: 5.2%
Activity [29]: 1.73%
Activity [30]: 1.73%
Activity [31]: 3.47%
concentration at 1 h [32]: 75 ng/mL
concentration at 2 h [33]: 60.4 ng/mL
Activity [34]: 4.05%
Activity [35]: 4.62%
Activity [36]: 6.36%
Kp at 1 h [37]: 0.2
Activity [38]: 6.36%
